Measured values as given in patent US9451775B2, “Heterocyclic compounds as pesticides” (Bayer Intellectual Property GmbH, priority 2008, dated 2016).
Like-named read-outs stand apart in the source and are kept apart here.

How the values were obtained:
[1] = logP determination by HPLC (formic acid method); type: physicochemical; conditions: reversed-phase HPLC column (C18), read-out: logP (HCOOH)
Procedure: 1) Description of the method for determining the logP values (formic acid method)
The logP values given in the table were determined in accordance with EEC Directive 79/831 Annex V.A8 by HPLC (High Performance Liquid Chromatography) on a reversed-phase column (C18). Temperature: 55° C.
Mobile phases for the determination in the acidic range (pH 3.4):
Mobile phase A: Acetonitrile+1 ml of formic acid/litre. Mobile phase B: water+0.9 ml of formic acid/litre.
Gradient: from 10% mobile phase A/90% mobile phase B to 95% mobile phase A/5% mobile phase B in 4.25 min.
Calibration was carried out using unbranched alkan-2-ones (having 3 to 16 carbon atoms) with known logP values (determination of the logP values by the retention times using linear interpolation between two successive alkanones). The lambda max values were determined in the maxima of the chromatographic signals using the UV spectra from 200 nm to 400 nm.

[2] = system: green peach aphid (Myzus persicae); test: Myzus test (spray treatment); type: in vivo; conditions: foliar, read-out: activity (effect in %, aphids killed)
Procedure: Myzus Test (Spray Treatment)
• Solvents: 78.0 parts by weight of acetone • 1.5 parts by weight of dimethylformamide • Emulsifier: 0.5 part by weight of alkylaryl polyglycol ether
To produce a suitable preparation of active compound, 1 part by weight of active compound is mixed with the stated amounts of solvents and emulsifier, and the concentrate is diluted with emulsifier-containing water to the desired concentration.
Discs of leaves of Chinese cabbage (Brassica pekinensis) which are heavily infested by all stages of the green peach aphid (Myzus persicae) are sprayed with an active compound preparation of the desired concentration.
After the desired period of time, the effect in % is determined. 100% means that all aphids have been killed; 0% means that none of the aphids have been killed.

[3] = pH 3.4, HPLC on reversed-phase column (C18), acidic range (pH 3.4), 55° C.
[4] = application rate of 500 g/ha, sprayed Chinese cabbage leaf discs
[5] = pH 3.4, values printed in the text of the preparation examples, formic acid method

Row | Structure (SMILES) | chromatographic logP [1, 3] | pest or weed control at 500 g/ha [2, 4] [%] | chromatographic logP [1, 5] | pest or weed control at 500 g/ha ([2]; in Brassica rapa) [%]
1 | CCC(CC#N)NC(=O)n1ccc(-c2sc(-c3cccnc3)nc2C)n1 (stereo not shown) [compound 131] | 2.14 | ≥ 80 | – | –
2 | Cc1nc(-c2cccnc2)sc1-c1ccn(-c2nnc(C3CC3)s2)n1 [compound 86] | 2.72 | ≥ 80 | – | –
3 | c1cncc(-c2nnc(-c3cc[nH]n3)s2)c1 [compound 162] | 0.84 | ≥ 80 | – | –
4 | Cc1nc(-c2cccnc2)sc1-c1ccn(C(=S)NC2CC2)n1 [compound 104] | 3.23 | ≥ 80 | – | –
5 | Cc1nc(-c2cccnc2)sc1-n1ccc(-c2ccco2)n1 [compound 40] | 2.43 | ≥ 80 | – | –
6 | Cc1nc(-c2cccnc2)sc1-n1ccc(-c2ccc(Cl)s2)n1 [compound 37] | 3.81 | ≥ 80 | – | –
7 | Cc1nc(-c2cccnc2)sc1-c1cccc(=O)[nH]1 [compound 32] | 1.23 | ≥ 80 | – | –
8 | c1cnc(-c2nccc(-c3nnc(-c4cccnc4)s3)n2)nc1 [Preparation Example 9, 4-(5-Pyridin-3-yl-[1,3,4]thiadiazol-2-yl)-[2,2′]bipyrimidinyl] | 1.07 | – | 1.07 | ≥ 80
9 | Cc1nc(-c2cccnc2)sc1-c1ccn(-c2nnc(C(F)(F)F)n2C)n1 [compound 80] | 2.27 | ≥ 80 | – | –
10 | Cc1nc(-c2cccnc2)sc1-c1ccnn1-c1ncccn1 [compound 26] | 1.47 | ≥ 80 | – | –
11 | CSc1cnn(-c2sc(-c3cccnc3)nc2C)c1 [compound 33] | 2.21 | ≥ 80 | – | –
12 | Cn1nc(-c2cccnc2)cc1C1=NN(c2ncccn2)CCO1 [compound 168] | 0.95 | ≥ 80 | – | –
13 | Cc1nc(-c2cccnc2)sc1-c1ccnc(-c2ccccn2)n1 [compound 29] | 1.47 | ≥ 80 | – | –
14 | COCc1nccc(-c2sc(-c3cccnc3)nc2C)n1 [compound 61] | 1.57 | ≥ 80 | – | –
15 | Cc1nc(-c2cccnc2)sc1-n1ccc(-c2cccs2)n1 [compound 34] | 2.84 | ≥ 80 | – | –
16 | Cc1nc(-c2cccnc2)sc1-c1cccc(-c2ncccn2)n1 [Preparation Example 6, 2-[6-(4-Methyl-2-pyridin-3-ylthiazol-5-yl)pyridin-2-yl]pyrimidine] | 1.73 | – | 1.75 | ≥ 80
17 | COc1nc(-n2ccc(-c3sc(-c4cccnc4)nc3C)n2)nc2c1CCC2 [compound 108] | 3.18 | ≥ 80 | – | –
18 | Cc1nc(-c2cccnc2)sc1-c1ccnc(-c2ccco2)n1 [compound 52] | 2.35 | ≥ 80 | – | –
19 | Cc1nc(-c2cccnc2)sc1-c1ccnc(-c2ncc(F)cc2F)n1 [compound 48] | 2.08 | ≥ 80 | – | –
20 | c1cncc(-c2ncc(-c3cccc(-n4ccnn4)n3)s2)c1 [compound 149] | 1.85 | ≥ 80 | – | –
21 | Cc1nc(-c2cccnc2)sc1-c1ccn(C(=O)NC2CC2)n1 [compound 125] | 2.08 | ≥ 80 | – | –
22 | c1cncc(-c2ncc(-c3cccc(-n4nccn4)n3)s2)c1 [compound 155] | 1.89 | ≥ 80 | – | –
23 | c1cnc(-n2ccc(-c3cnc(-c4cccnc4)s3)n2)nc1 [compound 89] | 1.48 | ≥ 80 | – | –

Row | Structure (SMILES) | chromatographic logP [1, 3] | pest or weed control at 500 g/ha [2, 4] [%] | chromatographic logP [1, 5] | pest or weed control at 500 g/ha ([2]; in Brassica rapa) [%]
24 | c1cnc(-n2ccc(-c3nnc(-c4cccnc4)s3)n2)nc1 [compound 160] | 1.44 | ≥ 80 | – | –
25 | Cc1nc(-c2cccnc2)sc1-c1ccncn1 [compound 90] | 1.39 | ≥ 80 | – | –
26 | Cc1nc(-c2cccnc2)sc1-c1cccc(C2=NOCCO2)n1 [Preparation Example 8, 3-[6-(4-Methyl-2-pyridin-3-ylthiazol-5-yl)pyridin-2-yl]-5,6-dihydro-[1,4,2]dioxazine] | 1.82 | – | 1.81 | ≥ 80
27 | Cc1nc(-c2cccnc2)sc1-c1cccc(S(C)(=O)=O)n1 [compound 68] | 1.62 | ≥ 80 | – | –
28 | c1cnc(-n2nccc2-c2nnc(-c3cccnc3)s2)nc1 [compound 161] | 1.13 | ≥ 80 | – | –
29 | Cc1nc(-c2cccnc2)sc1-c1cccc(C2OCCO2)c1 [compound 25] | 2.39 | ≥ 80 | – | –
30 | Cc1nc(-c2cccnc2)sc1-c1nc(-c2ccncc2)no1 [compound 138] | 2.19 | ≥ 80 | – | –
31 | c1cnc(Cn2ccc(-c3cnc(-c4cccnc4)s3)n2)nc1 [compound 147] | 1.24 | ≥ 80 | – | –
32 | Cc1nc(-c2cccnc2)sc1-c1cccc(-n2nc(C(F)(F)F)n(C)c2=O)n1 [compound 156] | 2.65 | ≥ 80 | – | –
33 | FC(F)(F)c1noc(-c2cnc(-c3cccnc3)s2)n1 [compound 71] | 2.7 | ≥ 80 | – | –
34 | Cc1nc(-c2cccnc2)sc1-c1cccc(N2CCOCC2)n1 [compound 96] | 2.58 | ≥ 80 | – | –
35 | c1cnc(-c2noc(-c3cnc(-c4cccnc4)s3)n2)nc1 [compound 70] | 1.4 | ≥ 80 | – | –
36 | COc1cc(OC)nc(-c2nccc(-c3sc(-c4cccnc4)nc3C)n2)n1 [compound 59] | 2.12 | ≥ 80 | – | –
37 | Cc1nc(-c2cccnc2)sc1-c1ccnc(CC2CC2)n1 [compound 105] | 2.69 | ≥ 80 | – | –
38 | Cc1nc(-c2cccnc2)sc1C1=NN(c2ncccn2)CCO1 [Preparation Example 7, 2-(4-Methyl-2-pyridin-3-ylthiazol-5-yl)-4-pyrimidin-2-yl-5,6-dihydro-4H-[1,3,4]oxadiazine] | 1.56 | ≥ 80 | 1.56 | –
39 | Cc1nc(-c2cccnc2)sc1-n1ccc(C(F)(F)F)n1 [Ex. No. 14] | 2.63 | ≥ 80 | – | –
40 | COC(=O)c1cccc(-c2sc(-c3cccnc3)nc2C)n1 [compound 95] | 2.03 | ≥ 80 | – | –
41 | COC(=O)c1oc(-c2sc(-c3cccnc3)nc2C)nc1C [compound 100] | 2.55 | ≥ 80 | – | –
42 | Cc1nc(-c2cccnc2)sc1-c1ccn(-c2nnc(C3CCC3)s2)n1 [compound 106] | 3.42 | ≥ 80 | – | –
43 | Cn1c(C(F)(F)F)nn(-c2cccc(-c3cnc(-c4cccnc4)s3)n2)c1=O [compound 157] | 2.35 | ≥ 80 | – | –
44 | Cc1cc(=O)n(-c2nccc(-c3sc(-c4cccnc4)nc3C)n2)[nH]1 [compound 47] | 1.48 | ≥ 80 | – | –
45 | Cc1nc(-c2cccnc2)sc1-c1nc(N)nc(C(C)F)n1 (stereo not shown) [compound 93] | 1.86 | ≥ 80 | – | –
